{"source": "patent US10125100B2", "about": "“Kinase inhibitors” (Respivert Limited, priority 2014, dated 2018)", "key": {"c-Src": {"biological_target": "c-Src (Homo sapiens (Human), UniProt P12931)", "sequence (P12931 whole entry, looked up)": "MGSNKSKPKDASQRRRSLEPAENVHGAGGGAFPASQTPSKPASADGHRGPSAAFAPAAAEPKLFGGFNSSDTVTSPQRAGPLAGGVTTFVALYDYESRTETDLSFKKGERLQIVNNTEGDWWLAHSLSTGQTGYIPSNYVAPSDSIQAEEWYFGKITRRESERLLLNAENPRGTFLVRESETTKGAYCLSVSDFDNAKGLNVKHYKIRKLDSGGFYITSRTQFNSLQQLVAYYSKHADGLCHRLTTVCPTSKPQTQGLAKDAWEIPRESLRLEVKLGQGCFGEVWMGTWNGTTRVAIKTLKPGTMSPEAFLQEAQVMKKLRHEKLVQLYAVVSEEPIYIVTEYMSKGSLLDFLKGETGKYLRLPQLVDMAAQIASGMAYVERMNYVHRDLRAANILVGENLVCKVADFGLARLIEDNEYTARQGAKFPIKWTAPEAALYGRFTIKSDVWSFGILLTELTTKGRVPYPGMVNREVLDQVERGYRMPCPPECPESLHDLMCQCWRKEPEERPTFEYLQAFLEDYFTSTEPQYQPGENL", "test": "c-Src enzyme inhibition, Z-LYTE FRET", "format": "biochemical", "procedure": "(§1) The enzyme inhibitory activities of compounds disclosed herein are determined by FRET using synthetic peptides labelled with both donor and acceptor fluorophores (Z-LYTE, Invitrogen Ltd., Paisley, UK).\nThe inhibitory activities of compounds of the invention against c-Src and Syk enzymes (Invitrogen), are evaluated in a similar fashion to that described hereinabove. The relevant enzyme (3000 ng/mL or 2000 ng/mL respectively, 2.5 μL) is incubated with the test compound (either 1 μg/mL, 0.1 μg/mL, 0.01 μg/mL, or 0.001 μg/mL, 2.5 μL each) for 2 hr at RT. The FRET peptides (8 μM, 2.5 μL), and appropriate ATP solutions (2.5 μL, 800 μM for c-Src, and 60 μM ATP for Syk) are then added to the enzymes/compound mixtures and the mixture incubated for 1 hr. Development reagent (protease, 5 μL) is added for 1 hr prior to detection in a fluorescence microplate reader (Varioskan® Flash, ThermoFisher Scientific).\n(§2) In all cases, the site-specific protease cleaves non-phosphorylated peptide only and eliminates the FRET signal. Phosphorylation levels of each reaction are calculated using the ratio of coumarin emission (donor) over fluorescein emission (acceptor), for which high ratios indicate high phosphorylation and low ratios indicate low phosphorylation levels."}, "p38 MAPKα (MAPK14)": {"biological_target": "p38 MAPKα (MAPK14) (Homo sapiens (Human), UniProt Q16539)", "sequence (Q16539 whole entry, canonical isoform)": "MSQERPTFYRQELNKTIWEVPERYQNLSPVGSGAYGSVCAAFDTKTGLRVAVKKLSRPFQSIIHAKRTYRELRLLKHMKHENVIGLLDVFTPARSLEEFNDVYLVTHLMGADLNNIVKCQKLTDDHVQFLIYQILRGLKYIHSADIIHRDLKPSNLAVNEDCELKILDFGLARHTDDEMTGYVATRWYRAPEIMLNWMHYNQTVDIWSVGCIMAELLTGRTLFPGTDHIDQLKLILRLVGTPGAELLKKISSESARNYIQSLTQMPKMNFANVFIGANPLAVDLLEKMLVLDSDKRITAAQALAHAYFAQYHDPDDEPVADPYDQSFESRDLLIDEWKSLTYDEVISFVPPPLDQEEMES", "test": "p38 MAPKα enzyme inhibition (Method 2), Z-LYTE FRET", "format": "biochemical", "procedure": "as §1\nThe following two assay variants can be used for determination of p38 MAPKα inhibition.\nThe inhibitory activities of test compounds against the p38 MAPKα isoform (MAPK14: Invitrogen) are evaluated indirectly by determining the level of activation/phosphorylation of the down-stream molecule, MAPKAP-K2. The p38 MAPKα protein (80 ng/mL, 2.5 μL) is mixed with the test compound (2.5 μL of either 4 μg/mL, 0.4 μg/mL, 0.04 μg/mL or 0.004 μg/mL) for 2 hr at RT. […] The mixture is incubated for 1 hr at RT. Development reagent (protease, 5 μL) is added for 1 hr prior to detection in a fluorescence microplate reader (Varioskan® Flash, ThermoFisher Scientific).\nThis method follows the same steps as Method 1 above, but utilises a higher concentration of the p38 MAPKα protein (2.5 μL of 200 ng/mL protein instead of 2.5 μL of 80 ng/mL protein) for mixing with the test compound (tested at either 1 μg/mL, 0.1 μg/mL, 0.01 μg/mL or 0.001 μg/mL).\nas §2"}, "Jurkat cells": {"test_system": "Jurkat cells", "test": "(r) Cell cytotoxicity assay", "format": "cell-based, human", "settings": "24 hours", "procedure,_shortened": "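Jurkat cells (1×10^5/well, RPMI + 10% FBS) exposed to compound at 20, 5 or 1 μg/mL final (1.0% DMSO control) for 24 h at 37° C., 5% CO2. Then stained with 7.5 μg/mL propidium iodide for 15 min. % viability = PI-negative cells by flow cytometry, normalized to DMSO.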"}, "Syk": {"biological_target": "Syk (Homo sapiens (Human), UniProt P43405)", "test": "Syk enzyme inhibition, Z-LYTE FRET", "format": "biochemical", "procedure": "as §1\nThe relevant enzyme (3000 ng/mL or 2000 ng/mL respectively, 2.5 μL) is incubated with the test compound (either 1 μg/mL, 0.1 μg/mL, 0.01 μg/mL, or 0.001 μg/mL, 2.5 μL each) for 2 hr at RT. The FRET peptides (8 μM, 2.5 μL), and appropriate ATP solutions (2.5 μL, 800 μM for c-Src, and 60 μM ATP for Syk) are then added to the enzymes/compound mixtures and the mixture incubated for 1 hr. Development reagent (protease, 5 μL) is added for 1 hr prior to detection in a fluorescence microplate reader (Varioskan® Flash, ThermoFisher Scientific).\nas §2"}}, "note": "pIC50: −log10 of the molar value.", "data": [{"smiles": "COc1cc(Nc2cc(Oc3ccc(NC(=O)Nc4cc(C(C)(C)C)cc(N(CCO)S(C)(=O)=O)c4OC)c4ccccc34)ccn2)ccc1C(=O)NCCN1CC[S+]([O-])CC1", "note": "[Example 48, 4-((4-((4-(3-(5-(tert-Butyl)-3-(N-(2-hydroxyethyl)methylsulfonamido)-2-methoxyphenyl)-ureido)naphthalen-1-yl)oxy)pyridin-2-yl)amino)-2-methoxy-N-(2-(1-oxidothiomorpholino)-ethyl)benzamide]", "values": [{"measurement": "pIC50", "setting": "c-Src", "result": 7.70}, {"measurement": "pIC50", "setting": "p38 MAPKα (MAPK14)", "result": 7.54}, {"measurement": "% Viability at 1 μg/mL", "setting": "Jurkat cells", "result": 89.0, "unit": "%"}, {"measurement": "% Viability at 5 μg/mL", "setting": "Jurkat cells", "result": 63.8, "unit": "%"}, {"measurement": "% Viability at 20 μg/mL", "setting": "Jurkat cells", "result": 54.2, "unit": "%"}, {"measurement": "pIC50", "setting": "Syk", "result": 7.26}]}, {"smiles": "COc1c(NC(=O)Nc2ccc(Oc3ccnc(Nc4ccc(C(=O)O)c(N(C)C)c4)c3)c3ccccc23)cc(C(C)(C)C)cc1NS(C)(=O)=O", "note": "[17(am), 4-[[4-[[4-[[5-tert-butyl-3-(methanesulfonamido)-2-methoxy-phenyl]carbamoylamino]-1-naphthyl]oxy]-2-pyridyl]amino]-2-(dimethylamino)benzoic acid]", "values": [{"measurement": "pIC50", "setting": "c-Src", "result": 7.17}, {"measurement": "pIC50", "setting": "p38 MAPKα (MAPK14)", "result": 8.40}, {"measurement": "% Viability at 1 μg/mL", "setting": "Jurkat cells", "result": 103.4, "unit": "%"}, {"measurement": "% Viability at 5 μg/mL", "setting": "Jurkat cells", "result": 90.5, "unit": "%"}, {"measurement": "% Viability at 20 μg/mL", "setting": "Jurkat cells", "result": 32.5, "unit": "%"}, {"measurement": "pIC50", "setting": "Syk", "result": 6.91}]}, {"smiles": "COc1cc(Nc2cc(Oc3ccc(NC(=O)Nc4cc(C(C)(C)C)cc(NS(C)(=O)=O)c4OC)c4ccccc34)ccn2)ccc1S(=O)(=O)CCOCCOCCO", "note": "[Example 40, N-(5-(tert-Butyl)-3-(3-(4-((2-((4-((2-(2-(2-hydroxyethoxy)ethoxy)ethyl)sulfonyl)-3-methoxyphenyl)amino)pyridin-4-yl)oxy)naphthalen-1-yl)ureido)-2-methoxyphenyl)-methanesulfonamide]", "values": [{"measurement": "pIC50", "setting": "c-Src", "result": 6.71}, {"measurement": "pIC50", "setting": "p38 MAPKα (MAPK14)", "result": 6.79}, {"measurement": "% Viability at 1 μg/mL", "setting": "Jurkat cells", "result": 89.6, "unit": "%"}, {"measurement": "% Viability at 5 μg/mL", "setting": "Jurkat cells", "result": 73.6, "unit": "%"}, {"measurement": "% Viability at 20 μg/mL", "setting": "Jurkat cells", "result": 67.1, "unit": "%"}, {"measurement": "pIC50", "setting": "Syk", "result": 6.40}]}, {"smiles": "COc1cc(Nc2cc(Oc3ccc(NC(=O)Nc4cc(C(C)(C)C)cc(NS(C)(=O)=O)c4OC)c4ccccc34)ccn2)ccc1C(=O)NC(CO)(CO)CO", "note": "[17(cm), 4-((4-((4-(3-(5-(tert-Butyl)-2-methoxy-3-(methylsulfonamido)phenyl)ureido)naphthalen-1-yl)oxy)pyridin-2-yl)amino)-N-(1,3-dihydroxy-2-(hydroxymethyl)propan-2-yl)-2-methoxybenzamide]", "values": [{"measurement": "pIC50", "setting": "c-Src", "result": 7.54}, {"measurement": "pIC50", "setting": "p38 MAPKα (MAPK14)", "result": 7.33}, {"measurement": "% Viability at 1 μg/mL", "setting": "Jurkat cells", "result": 95.9, "unit": "%"}, {"measurement": "% Viability at 5 μg/mL", "setting": "Jurkat cells", "result": 77.0, "unit": "%"}, {"measurement": "% Viability at 20 μg/mL", "setting": "Jurkat cells", "result": 14.5, "unit": "%"}, {"measurement": "pIC50", "setting": "Syk", "result": 7.09}]}, {"smiles": "COc1cc(Nc2cc(Oc3ccc(NC(=O)Nc4cc(C(C)(C)C)cc(NS(C)(=O)=O)c4OC)c4ccccc34)ccn2)ccc1C(=O)NC[C@H](O)[C@H](O)[C@H](O)CO", "note": "[Example 42, 4-((4-((4-(3-(5-(tert-Butyl)-2-methoxy-3-(methylsulfonamido)phenyl)ureido)naphthalen-1-yl)oxy)pyridin-2-yl)amino)-2-methoxy-N-((2S,3S4R)-2,3,4,5-tetrahydroxypentyl)benzamide]", "values": [{"measurement": "pIC50", "setting": "c-Src", "result": 7.68}, {"measurement": "pIC50", "setting": "p38 MAPKα (MAPK14)", "result": 8.52}, {"measurement": "% Viability at 1 μg/mL", "setting": "Jurkat cells", "result": 96.6, "unit": "%"}, {"measurement": "% Viability at 5 μg/mL", "setting": "Jurkat cells", "result": 91.7, "unit": "%"}, {"measurement": "% Viability at 20 μg/mL", "setting": "Jurkat cells", "result": 21.3, "unit": "%"}, {"measurement": "pIC50", "setting": "Syk", "result": 7.06}]}, {"smiles": "COc1cc(Nc2cc(Oc3ccc(NC(=O)Nc4cc(C(C)(C)C)cc(NS(C)(=O)=O)c4OC)c4ccccc34)ccn2)cc(OC)c1C(=O)NCCN1CCN(C)CC1", "note": "[Example 22, 4-((4-((4-(3-(5-(tert-Butyl)-2-methoxy-3-(methylsulfonamido)phenyl)ureido)naphthalen-1-yl)oxy)pyridin-2-yl)amino)-2,6-dimethoxy-N-(2-(4-methylpiperazin-1-yl)ethyl)benzamide]", "values": [{"measurement": "pIC50", "setting": "c-Src", "result": 7.77}, {"measurement": "pIC50", "setting": "p38 MAPKα (MAPK14)", "result": 8.22}, {"measurement": "% Viability at 1 μg/mL", "setting": "Jurkat cells", "result": 102.8, "unit": "%"}, {"measurement": "% Viability at 5 μg/mL", "setting": "Jurkat cells", "result": 96.6, "unit": "%"}, {"measurement": "% Viability at 20 μg/mL", "setting": "Jurkat cells", "result": 42.9, "unit": "%"}, {"measurement": "pIC50", "setting": "Syk", "result": 6.86}]}, {"smiles": "COc1cc(Nc2cc(Oc3ccc(NC(=O)Nc4cc(C(C)(C)C)cc(NS(C)(=O)=O)c4OC)c4ccccc34)ccn2)ccc1S(=O)(=O)CC(CO)(CO)CO", "note": "[Example 45, N-(5-(tert-Butyl)-3-(3-(4-((2-((4-((3-hydroxy-2,2-bis(hydroxymethyl)propyl)sulfonyl)-3-methoxyphenyl)amino)pyridin-4-yl)oxy)naphthalen-1-yl)ureido)-2-methoxyphenyl)-methanesulfonamide]", "values": [{"measurement": "pIC50", "setting": "c-Src", "result": 7.40}, {"measurement": "pIC50", "setting": "p38 MAPKα (MAPK14)", "result": 7.44}, {"measurement": "% Viability at 1 μg/mL", "setting": "Jurkat cells", "result": 97.7, "unit": "%"}, {"measurement": "% Viability at 5 μg/mL", "setting": "Jurkat cells", "result": 93.7, "unit": "%"}, {"measurement": "% Viability at 20 μg/mL", "setting": "Jurkat cells", "result": 9.8, "unit": "%"}, {"measurement": "pIC50", "setting": "Syk", "result": 6.97}]}, {"smiles": "COc1cc(Nc2cc(Oc3ccc(NC(=O)Nc4cc(C(C)(C)C)cc(NS(C)(=O)=O)c4OC)c4ccccc34)ccn2)ccc1C(=O)NCCN1CCN(C2CC2)CC1", "note": "[Example 26, 4-((4-((4-(3-(5-(tert-Butyl)-2-methoxy-3-(methylsulfonamido)phenyl)ureido)naphthalen-1-yl)oxy)pyridin-2-yl)amino)-N-(2-(4-cyclopropylpiperazin-1-yl)ethyl)-2-methoxybenzamide]", "values": [{"measurement": "pIC50", "setting": "p38 MAPKα (MAPK14)", "result": 7.40}, {"measurement": "% Viability at 1 μg/mL", "setting": "Jurkat cells", "result": 94.8, "unit": "%"}, {"measurement": "% Viability at 5 μg/mL", "setting": "Jurkat cells", "result": 84.6, "unit": "%"}, {"measurement": "% Viability at 20 μg/mL", "setting": "Jurkat cells", "result": 76.6, "unit": "%"}]}, {"smiles": "COc1cc(Nc2cc(Oc3ccc(NC(=O)Nc4cc(C(C)(C)C)cc(NS(C)(=O)=O)c4OC)c4ccccc34)ccn2)cc(OC)c1C(=O)NCCN(C)C", "note": "[Example 39, 4-((4-((4-(3-(5-(tert-Butyl)-2-methoxy-3-(methylsulfonamido)phenyl)ureido)naphthalen-1-yl)oxy)pyridin-2-yl)amino)-N-(2-(dimethylamino)ethyl)-2,6-dimethoxybenzamide]", "values": [{"measurement": "pIC50", "setting": "c-Src", "result": 7.77}, {"measurement": "pIC50", "setting": "p38 MAPKα (MAPK14)", "result": 8.22}, {"measurement": "% Viability at 1 μg/mL", "setting": "Jurkat cells", "result": 93.9, "unit": "%"}, {"measurement": "% Viability at 5 μg/mL", "setting": "Jurkat cells", "result": 87.7, "unit": "%"}, {"measurement": "% Viability at 20 μg/mL", "setting": "Jurkat cells", "result": 1.5, "unit": "%"}, {"measurement": "pIC50", "setting": "Syk", "result": 6.59}]}, {"smiles": "COc1cc(Nc2cc(Oc3ccc(NC(=O)Nc4cc(C(C)(C)C)cc(NC(=O)CO)c4OC)c4ccccc34)ccn2)ccc1C(=O)NCCN1CC[S+]([O-])CC1", "note": "[Example 41, 4-((4-((4-(3-(5-(tert-Butyl)-3-(2-hydroxyacetamido)-2-methoxyphenyl)ureido)naphthalen-1-yl)oxy)pyridin-2-yl)amino)-2-methoxy-N-(2-(1-oxidothiomorpholino)ethyl)benzamide]", "values": [{"measurement": "pIC50", "setting": "c-Src", "result": 7.89}, {"measurement": "pIC50", "setting": "p38 MAPKα (MAPK14)", "result": 7.51}, {"measurement": "% Viability at 1 μg/mL", "setting": "Jurkat cells", "result": 90.5, "unit": "%"}, {"measurement": "% Viability at 5 μg/mL", "setting": "Jurkat cells", "result": 67.3, "unit": "%"}, {"measurement": "% Viability at 20 μg/mL", "setting": "Jurkat cells", "result": 55.3, "unit": "%"}, {"measurement": "pIC50", "setting": "Syk", "result": 6.49}]}]}
